Paper PMC8565742 (PLoS Neglected Tropical Diseases, 2021)

Tests used:
[1] = tested on: endogenous receptors; conditions: confocal Ca2+ imaging; cited from earlier work
[2] = tested on: untransfected HEK293 cells; assay: Counterscreen, antagonist mode, Ca2+ signal in untransfected HEK cells; assay type: cell-based; conditions: S3 Table, counterscreen titration
Procedure: (§1) HEK cells were transfected with cDNA (400μg/ml DNA) encoding Sm.TRPMPZQ using a Maxcyte STX electroporation system and incubated overnight at 37°C. This system is uniquely capabable of large scale transfections providing one batch of cells ready for large scale HTS [30]. Briefly, the HEK cells were resuspended at 10^8/ml in Maxcyte electroporation buffer. Plasmid DNA was added to the cells in buffer to achieve a concentration of 400 μg/ml from a stock of 5mg/ml (in TE buffer). This mixture was loaded into the appropriate cassette, inserted into the machine, and cells electroporated. Cells were then frozen to provide a single supply of transfected cells for all subsequent assays. On the day of the assays, cells were thawed in a 37°C waterbath, and resuspended in DMEM + 10% FBS and counted. The cells were pelleted by centrifugation at 170xg for 5 minutes. The media was aspirated, and the remaining pellet was resuspended in 1x HBSS with 20 mM HEPES and 1% DMSO to achieve 1.33x10^6cells/ml. This cell suspension was then dispensed at 3 μl/well to the 1536 well plates (Greiner Bio One part 789072) at a density of 4,000 cells/well. Measurements of fluorescence intensity (λex = 470 nm, λem = 535 nm) were made using a FLIPR (Molecular Devices FLIPR Tetra). A read of basal fluorescence values was made (5s) prior to addition of compounds or controls (30 nl). In both ‘agonist’ and ‘antagonist mode’, the total assay volume was 6μl (1% DMSO). […] Ligand performance was categorized using an algorithm based on the activity of the entire dataset to define a ‘hit-cutoff’ parameter for both agonist-mode and antagonist-mode screening. Any compound with greater percent activation than this cutoff was assigned as ‘active’ prior to titration and counter-screening. Titration assays were executed using the same reagents, protocols and detection systems, done as 10-point concentration-response curves, performed in triplicate. Counter-screening was performed using untransfected HEK293 cells for comparison with results testing the same compounds effect on cells expressing Sm.TRPMPZQ, with ATP used as the positive control. For each compound, activity was plotted against compound concentration and data were fitted with a sigmoidal function. In order to be considered a hit at this stage a compound must achieve a EC50<5 μM for agonists and IC50 <5 μM for antagonists. All compounds selected for titration were subjected to LC-MS analysis to confirm mass and sample purity. ChemAxon (https://www.chemaxon.com) academic licensing was provided for the use of Instant JChem (ver. 15.10.12.0) to perform compound mining of the libraries utilized in this effort.

[3] = tested on: untransfected HEK293 cells; assay: Counterscreen, agonist mode, Ca2+ signal in untransfected HEK cells; assay type: cell-based; conditions: S3 Table, counterscreen titration; for EC50: unit inferred, read-out: HEK AG Final EC50
Procedure: as §1

[4] = molecular target: T1, Sm.TRPMPZQ (Schistosoma mansoni, UniProt A0A5K4F0X5); assay: cell-based; conditions: S3 Table, titration
T1 sequence (A0A5K4F0X5 entry or part of it): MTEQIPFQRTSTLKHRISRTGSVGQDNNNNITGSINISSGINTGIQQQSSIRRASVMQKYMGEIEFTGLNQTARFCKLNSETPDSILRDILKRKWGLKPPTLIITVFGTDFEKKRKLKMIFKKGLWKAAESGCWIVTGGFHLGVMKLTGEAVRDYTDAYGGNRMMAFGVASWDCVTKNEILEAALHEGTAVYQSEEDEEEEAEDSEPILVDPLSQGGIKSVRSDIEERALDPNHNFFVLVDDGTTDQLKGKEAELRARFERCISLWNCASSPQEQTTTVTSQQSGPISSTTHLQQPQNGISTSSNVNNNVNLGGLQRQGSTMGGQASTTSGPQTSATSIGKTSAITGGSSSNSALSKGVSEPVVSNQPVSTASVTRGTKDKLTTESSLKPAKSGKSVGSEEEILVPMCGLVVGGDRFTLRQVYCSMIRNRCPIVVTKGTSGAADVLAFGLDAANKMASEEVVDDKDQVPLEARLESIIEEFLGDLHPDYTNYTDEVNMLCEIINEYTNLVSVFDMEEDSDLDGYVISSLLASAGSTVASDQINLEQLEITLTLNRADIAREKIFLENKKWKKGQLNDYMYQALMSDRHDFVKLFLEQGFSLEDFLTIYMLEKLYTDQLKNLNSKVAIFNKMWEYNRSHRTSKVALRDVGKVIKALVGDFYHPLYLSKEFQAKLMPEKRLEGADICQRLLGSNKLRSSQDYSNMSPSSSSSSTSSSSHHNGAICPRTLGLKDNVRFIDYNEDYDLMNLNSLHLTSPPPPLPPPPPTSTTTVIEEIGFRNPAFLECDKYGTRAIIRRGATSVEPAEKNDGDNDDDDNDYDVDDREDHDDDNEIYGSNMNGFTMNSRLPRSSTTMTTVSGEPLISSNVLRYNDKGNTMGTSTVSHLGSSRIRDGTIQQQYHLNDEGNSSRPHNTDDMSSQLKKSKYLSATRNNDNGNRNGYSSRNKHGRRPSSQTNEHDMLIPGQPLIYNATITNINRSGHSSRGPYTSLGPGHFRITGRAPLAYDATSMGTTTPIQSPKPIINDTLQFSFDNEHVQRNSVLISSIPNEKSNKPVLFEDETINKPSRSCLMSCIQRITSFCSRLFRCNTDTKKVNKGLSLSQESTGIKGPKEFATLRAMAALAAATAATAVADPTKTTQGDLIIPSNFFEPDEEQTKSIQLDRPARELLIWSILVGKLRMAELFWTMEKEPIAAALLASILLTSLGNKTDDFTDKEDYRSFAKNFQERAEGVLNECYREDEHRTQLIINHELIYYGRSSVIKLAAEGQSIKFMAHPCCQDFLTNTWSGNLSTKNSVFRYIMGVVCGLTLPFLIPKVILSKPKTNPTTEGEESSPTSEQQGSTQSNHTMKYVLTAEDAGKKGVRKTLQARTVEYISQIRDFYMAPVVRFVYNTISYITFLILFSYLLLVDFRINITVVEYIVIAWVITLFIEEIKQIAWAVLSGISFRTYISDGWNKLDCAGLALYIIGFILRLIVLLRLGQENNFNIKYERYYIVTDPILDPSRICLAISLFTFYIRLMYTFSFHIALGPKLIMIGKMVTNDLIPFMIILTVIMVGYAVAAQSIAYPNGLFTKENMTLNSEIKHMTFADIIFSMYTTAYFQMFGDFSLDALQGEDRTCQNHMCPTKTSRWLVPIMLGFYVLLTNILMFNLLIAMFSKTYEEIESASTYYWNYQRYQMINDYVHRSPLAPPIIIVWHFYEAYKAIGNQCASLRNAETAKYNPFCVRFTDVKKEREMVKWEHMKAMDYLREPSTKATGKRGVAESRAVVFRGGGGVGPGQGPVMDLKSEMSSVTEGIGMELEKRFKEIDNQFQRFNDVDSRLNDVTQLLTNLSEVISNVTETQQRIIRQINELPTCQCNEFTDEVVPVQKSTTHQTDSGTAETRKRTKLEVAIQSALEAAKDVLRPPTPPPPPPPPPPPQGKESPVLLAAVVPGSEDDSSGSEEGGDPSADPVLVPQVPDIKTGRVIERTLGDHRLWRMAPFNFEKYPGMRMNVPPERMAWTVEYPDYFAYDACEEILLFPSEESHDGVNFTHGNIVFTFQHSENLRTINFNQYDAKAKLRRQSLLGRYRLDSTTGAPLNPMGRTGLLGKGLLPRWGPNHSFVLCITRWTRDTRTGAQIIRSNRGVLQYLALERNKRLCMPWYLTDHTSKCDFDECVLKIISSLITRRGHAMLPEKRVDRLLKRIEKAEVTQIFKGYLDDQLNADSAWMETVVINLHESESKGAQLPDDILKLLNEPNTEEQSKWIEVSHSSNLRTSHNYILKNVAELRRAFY
Procedure: as §1, with “Any compound with greater percent activation than this cutoff was assigned as ‘active’ prior to titration and counter-screening.” left out, “In order to be considered a hit at this stage a compound must achieve a EC50<5 μM for agonists and IC50 <5 μM for antagonists. All compounds selected for titration were subjected to LC-MS analysis to confirm mass and sample purity.” left out

[5] = molecular target: T1, Sm.TRPMPZQ; assay: cell-based; conditions: S3 Table, titration; remark: listed apart in the source
Procedure: as §1, with “This cell suspension was then dispensed at 3 μl/well to the 1536 well plates (Greiner Bio One part 789072) at a density of 4,000 cells/well. Measurements of fluorescence intensity (λex = 470 nm, λem = 535 nm) were made using a FLIPR (Molecular Devices FLIPR Tetra).” left out, “Any compound with greater percent activation than this cutoff was assigned as ‘active’ prior to titration and counter-screening.” left out, “function.” for “function. In order to be considered a hit at this stage a compound must achieve a EC50<5 μM for agonists and IC50 <5 μM for antagonists. All compounds selected for titration were subjected to LC-MS analysis to confirm mass and sample purity. ChemAxon (https://www.chemaxon.com) academic licensing was provided for the use of Instant JChem (ver. 15.10.12.0) to perform compound mining of the libraries utilized in this effort.”

[6] = molecular target: T1, Sm.TRPMPZQ; conditions: human TRPM8 agonists; cited from earlier work

Nc1ncnc2c1ncn2[C@@H]1O[C@H](COP(=O)(O)OP(=O)(O)OP(=O)(O)O)[C@@H](O)[C@H]1O [ATP]
ΔF/F, amplitude of Ca2+ transient [1]: 4.5±1.5

Cc1cc(C)n(-c2ccc(-n3cccc3/C=C(/C#N)S(=O)(=O)c3ccccc3)cc2)n1 [SR-02000000290-3]
HEK ANT Averaged Max % Response [2]: 37.5091% | HEK AG Averaged Max % Response [3]: 13.2678% | EC50 [3]: > 12.4 µM | Sm.TRPMPZQ AG Averaged Max % Response [4]: 6.499% | Sm.TRPMPZQ ANT Averaged Max % Response [5]: 71.9269%

FC(F)(F)c1ccc2c(c1)nc(SCc1ccccc1)n2CCc1ccccc1 [SR-07000003001-2]
HEK ANT Averaged Max % Response [2]: 21.2984% | HEK AG Averaged Max % Response [3]: 8.753% | EC50 [3]: > 12.4 µM | Sm.TRPMPZQ AG Averaged Max % Response [4]: 3.104% | Sm.TRPMPZQ ANT Averaged Max % Response [5]: 61.2456%

O=C1NC(c2cccc([N+](=O)[O-])c2)=CCN1c1ccccc1O [icilin]
activation of Sm.TRPMPZQ [6]: not activated

CC1CCC(C(C)C)C(O)C1 (stereo not shown) [menthol]
activation of Sm.TRPMPZQ [6]: not activated
